Source: patent US11542273B2, “Amide compound having bet proteolysis-inducing action and medicinal application thereof” (MITSUBISHI TANABE PHARMA CORPORATION, priority 2018, dated 2023)

What was measured:
[1] = biological target: BRD4 protein (Homo sapiens (Human), UniProt O60885); experiment: BRD4 protein degradation inducing action in cancer cells (immunofluorescence, Operetta); type: cell-based; details: LNCaP cells, 6 hr treatment, fluorescence intensity
Method: The degradation inducing action of the compound of the present invention on BRD4 protein in cancer cells was evaluated in vitro using human prostate cancer LNCaP cells. LNCaP cells were suspended in 10% FBS/RPMI1640, seeded in a 96 well Cell carrier plate (Perkin Elmer) and cultured at 5% CO2, 37° C. overnight. A test compound dissolved in DMSO was diluted with 10% FBS/RPMI1640 and added and the cells were further cultured for 6 hr. After culturing, the cells were immobilized with 4% para-formaldehyde/PBS and further subjected to a permeation treatment with 0.25% Triton X-100/PBS. Thereafter, the cells were blocked with 10% BSA/PBS, a solution containing Anti-Brd4 antibody (Abcam) or Anti-BRD4 (Sigma-Aldrich) as the primary antibody was added and the cells were incubated at 4° C. overnight. Thereafter, as the secondary antibody, a solution containing secondary antibody A shown below was added to Example compounds 1-190, 223 and 224, and a solution containing secondary antibody B shown below was added to Example compounds 191-222, and 0.5 μg/mL Hoechst 33342 (Sigma-Aldrich) and 14 μM Acti-Stain 555 Fluorescent Phalloidin (Cytoskeleton) were further added. After incubation for 1 hr, BRD4 protein amount was measured by Operetta (Perkin Elmer) as fluorescence intensity.
• Anti-Rabbit IgG(H+L), F(ab′)2 Fragment (Alexa Fluor 488 Conjugate) (Cell Signaling Technology), fluorescence intensity was measured at excitation: 495 nm, emission: 519 nm. Secondary Antibody B • Goat anti-Rabbit IgG(H+L) Cross-Adserbed Secondary Antibody (Alexa Fluor 546) (Thermo Fisher Scientific) fluorescence intensity was measured at excitation: 560 nm, emission: 572 nm.
The BRD4 protein degradation inducing activity of the compound of the present invention in LNCaP cells is shown in DC50 value in Table 3. The DC50 value is a concentration of the compound showing 50% fluorescence intensity when the fluorescence intensity thereof under compound untreated condition is 100%. It was calculated from the straight line connecting the fluorescence intensity at two points enclosing the 50% fluorescence intensity and the compound concentration.

[2] = test system: human prostate cancer LNCaP cells; experiment: Cytotoxic action on cancer cells (WST-8, 96 hr); type: cell-based; details: Homo sapiens, LNCaP, 96 h, read-out: LNCaP cytotoxic activity: IC50
Method: The cytotoxic action of the compound of the present invention against human cancer cells was evaluated in vitro. In this experiment, (+)-JQ1 (Nature volume 468, pages 1067-1073 (23 Dec. 2010)) known to have an inhibitory activity on the binding of BRD4 protein and a ligand therefor was used as a positive control drug. Respective cells were suspended in 10% FBS/RPMI1640, seeded in a 96 well plate and cultured at 5% CO2, 37° C. overnight. A test compound dissolved in DMSO was diluted with 10% FBS/RPMI1640 and added and the cells were further cultured for 96 hr. After culturing, the viable cell number was measured using a cell number measurement WST-8 kit (Kishida Chemical Co., Ltd.). As a control, the measurement was performed under conditions free of the test compound. The cytotoxic activity of the compound of the present invention against human prostate cancer LNCaP cells is shown in IC50 value in Table 1. […] It was calculated from the straight line connecting the cell survival rate at two points enclosing the 50% cell survival rate and the compound concentration. In addition, the cytotoxic activity against respective cancer cells of human acute myeloid leukemia MV-4-11 cell, human chronic myeloid leukemia K562 cell, human multiple myeloma MM.1S cell, human diffuse large B-cell lymphoma SU-DHL-6 cell, human T-cell leukemia Jurkat cells, human Burkitt lymphoma Raji cell, human castration-resistant prostate cancer PC-3 cell, human ovarian cancer A2780 cell, human bladder cancer 5637 cell, human breast cancer ZR-75-1 cell, human triple negative breast cancer MDA-MB-231 cell, human uterine sarcoma MES-SA cell, human gastric cancer SNU-16 cell, human non-small cell lung cancer NCI-H1975 cell, human small cell lung cancer NCI-H82 cell, human large cell lung cancer NCI-H460 cell, human colorectal cancer HCT116 cell, human glioma U-87 MG cell, human pancreatic cancer AsPC-1 cell, and human liver cancer Hep G2 cell is shown in IC50 value in Table 2.

SMILES	DC50 [1]	IC50 [2]
COC(=O)C[C@@H]1N=C(c2ccc(-c3ccc(C(=O)N[C@H](C(=O)N4C[C@H](O)C[C@H]4C(=O)NCc4ccc(-c5ocnc5C)cc4)C(C)(C)C)cc3)cc2)c2c(sc(C)c2C)-n2c(C)nnc21 [Example 218, methyl {(6S)-4-[4′-({(2S)-1-[(2S,4R)-4-hydroxy-2-({[4-(4-methyl-1,3-oxazol-5-yl)phenyl]methyl}carbamoyl)pyrrolidin-1-yl]-3,3-dimethyl-1-oxobutan-2-yl}carbamoyl) [1,1′-biphenyl]-4-yl]-2,3,9-trimethyl-6H-thieno [3,2-f][1,2,4]triazolo [4,3-a] [1,4]diazepin-6-yl}acetate]	410 pM	370 pM
COC(=O)C[C@@H]1N=C(c2ccc(-c3ccc4nc(C(=O)N[C@H](C(=O)N5C[C@H](O)C[C@H]5C(=O)N[C@@H](C)c5ccc(-c6scnc6C)cc5)C(C)(C)C)oc4c3)cc2)c2c(sc(C)c2C)-n2c(C)nnc21 [Example 181, methyl [(6S)-4-{4-[2-({(2S)-1-[(2S,4R)-4-hydroxy-2-({(1S)-1-[4-(4-methyl-1,3-thiazol-5-yl)phenyl]ethyl}carbamoyl)pyrrolidin-1-yl]-3,3-dimethyl-1-oxobutan-2-yl}carbamoyl)-1,3-benzoxazol-6-yl]phenyl}-2,3,9-trimethyl-6H-thieno[3,2-f][1,2,4]triazolo[4,3-a][1,4]diazepin-6-yl]acetate]	31 pM	37 pM
COC(=O)C[C@@H]1N=C(c2ccc(-c3ccc(OC(F)(F)C(=O)N[C@H](C(=O)N4C[C@H](O)C[C@H]4C(=O)N[C@@H](C)c4ccc(-c5scnc5C)cc4)C(C)(C)C)cc3)cc2)c2c(sc(C)c2C)-n2c(C)nnc21 [Example 122, methyl [(6S)-4-{4′-[1,1-difluoro-2-({(2S)-1-[(2S,4R)-4-hydroxy-2-({(1S)-1-[4-(4-methyl-1,3-thiazol-5-yl)phenyl]ethyl}carbamoyl)pyrrolidin-1-yl]-3,3-dimethyl-1-oxobutan-2-yl}amino)-2-oxoethoxy][1,1′-biphenyl]-4-yl}-2,3,9-trimethyl-6H-thieno[3,2-f][1,2,4]triazolo[4,3-a][1,4]diazepin-6-yl]acetate]	97 pM	400 pM
COC(=O)N(C)C1N=C(c2ccc(-c3ccc(OCC(=O)N[C@H](C(=O)N4C[C@H](O)C[C@H]4C(=O)N[C@@H](C)c4ccc(-c5scnc5C)cc4)C(C)(C)C)cc3)cc2)c2c(sc(C)c2C)-n2c(C)nnc21 (stereo partly drawn) [Example 35, methyl (4-{4′-[2-({(2S)-1-[(2S,4R)-4-hydroxy-2-({(1S)-1-[4-(4-methyl-1,3-thiazol-5-yl)phenyl]ethyl}carbamoyl)pyrrolidin-1-yl]-3,3-dimethyl-1-oxobutan-2-yl}amino)-2-oxoethoxy][1,1′-biphenyl]-4-yl}-2,3,9-trimethyl-6H-thieno[3,2-f][1,2,4]triazolo[4,3-a][1,4]diazepin-6-yl)methylcarbamate]	660 pM	3900 pM
Cc1ncsc1-c1ccc([C@H](C)NC(=O)[C@@H]2C[C@@H](O)CN2C(=O)[C@@H](NC(=O)/C=C/c2ccc(C3=N[C@@H](C)c4nnc(C)n4-c4sc(C)c(C)c43)cc2)C(C)(C)C)cc1 [Example 201, (2S,4R)-1-[(2S)-3,3-dimethyl-2-{[(2E)-3-{4-[(6S)-2,3,6,9-tetramethyl-6H-thieno[3,2-f][1,2,4]triazolo[4,3-a] [1,4]diazepin-4-yl]phenyl}prop-2-enoyl]amino}butanoyl]-4-hydroxy-N-{(1S)-1-[4-(4-methyl-1,3-thiazol-5-yl)phenyl]ethyl}pyrrolidine-2-carboxamide]	370 pM	340 pM
COC(=O)C[C@@H]1N=C(c2ccc(-c3ccc(OC(C)C(=O)N[C@H](C(=O)N4C[C@H](O)C[C@H]4C(=O)N[C@@H](C)c4ccc(-c5scnc5C)cc4)C(C)(C)C)cc3)cc2)c2c(sc(C)c2C)-n2c(C)nnc21 (stereo partly drawn) [Example 50, methyl [(6S)-4-(4′-{[1-({(2S)-1-[(2S,4R)-4-hydroxy-2-({(1S)-1-[4-(4-methyl-1,3-thiazol-5-yl)phenyl]ethyl}carbamoyl)pyrrolidin-1-yl]-3,3-dimethyl-1-oxobutan-2-yl}amino)-1-oxopropan-2-yl]oxy}[1,1′-biphenyl]-4-yl)-2,3,9-trimethyl-6H-thieno[3,2-f][1,2,4]triazolo[4,3-a] [1,4]diazepin-6-yl]acetate]	610 pM	250 pM
COC(=O)C[C@@H]1N=C(c2ccc(Nc3cccc(OCC(=O)N[C@H](C(=O)N4C[C@H](O)C[C@H]4C(=O)N[C@@H](C)c4ccc(-c5scnc5C)cc4)C(C)(C)C)c3)cc2)c2c(sc(C)c2C)-n2c(C)nnc21 [Example 47, methyl [(6S)-4-(4-{3-[2-({(2S)-1-[(2S,4R)-4-hydroxy-2-({(1S)-1-[4-(4-methyl-1,3-thiazol-5-yl)phenyl]ethyl}carbamoyl)pyrrolidin-1-yl]-3,3-dimethyl-1-oxobutan-2-yl}amino)-2-oxoethoxy]anilino}phenyl)-2,3,9-trimethyl-6H-thieno[3,2-f][1,2,4]triazolo[4,3-a][1,4]diazepin-6-yl]acetate]	450 pM	420 pM
Cc1ncsc1-c1ccc([C@H](C)NC(=O)[C@@H]2C[C@@H](O)CN2C(=O)[C@@H](NC(=O)c2cc(F)c(-c3ccc(C4=N[C@@H](C)c5nnc(C)n5-c5sc(C)c(C)c54)cc3)cc2Cl)C(C)(C)C)cc1 [Example 204, (2S,4R)-1-[(2S)-2-({5-chloro-2-fluoro-4′-[(6S)-2,3,6,9-tetramethyl-6H-thieno[3,2-f][1,2,4]triazolo[4,3-a] [1,4]diazepin-4-yl][1,1′-biphenyl]-4-carbonyl}amino)-3,3-dimethylbutanoyl]-4-hydroxy-N-{(1S)-1-[4-(4-methyl-1,3-thiazol-5-yl)phenyl]ethyl}pyrrolidine-2-carboxamide]	510 pM	320 pM
Cc1ncsc1-c1ccc([C@H](C)NC(=O)[C@@H]2C[C@@H](O)CN2C(=O)[C@@H](NC(=O)CCCCCCc2ccc(C3=N[C@@H](C)c4nnc(C)n4-c4sc(C)c(C)c43)cc2)C(C)(C)C)cc1 [Example 194, (2S,4R)-1-{(2S)-3,3-dimethyl-2-[(7-{4-[(6S)-2,3,6,9-tetramethyl-6H-thieno[3,2-f][1,2,4]triazolo[4,3-a] [1,4]diazepin-4-yl]phenyl}heptanoyl)amino]butanoyl}-4-hydroxy-N-{(1S)-1-[4-(4-methyl-1,3-thiazol-5-yl)phenyl]ethyl}pyrrolidine-2-carboxamide]	230 pM	170 pM
COC(=O)C[C@@H]1N=C(c2ccc(-c3ccc4oc(C(=O)N[C@H](C(=O)N5C[C@H](O)C[C@H]5C(=O)NCc5ccc(-c6scnc6C)cc5)C(C)(C)C)nc4c3)cc2)c2c(sc(C)c2C)-n2c(C)nnc21 [Example 171, methyl [(6S)-4-{4-[2-({(2S)-1-[(2S,4R)-4-hydroxy-2-({[4-(4-methyl-1,3-thiazol-5-yl)phenyl]methyl}carbamoyl)pyrrolidin-1-yl]-3,3-dimethyl-1-oxobutan-2-yl}carbamoyl)-1,3-benzoxazol-5-yl]phenyl}-2,3,9-trimethyl-6H-thieno[3,2-f][1,2,4]triazolo[4,3-a][1,4]diazepin-6-yl]acetate]	160 pM	80 pM
